From PubChem BioAssay (NCI)
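Step 1: Grow cells in 96-well plates. Step 2: Expose to compound for 48 hours at 5 concentrations. Step 3: Interpolate endpoints linearly; if unreached, use highest concentration. GI50 = concentration required for 50% inhibition of growth. The concentration for full growth arrest is given as TGI.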

Legend:
Assay in all cases: NCI anticancer screen, dose series, 48 h
786-0 renal = tested on: 786-0 renal
A498 renal = tested on: A498 renal
A549 NSCLC = tested on: A549 NSCLC
ACHN renal = tested on: ACHN renal
BT-549 breast = tested on: BT-549 breast
CAKI-1 renal = tested on: CAKI-1 renal
COLO 205 colon = tested on: COLO 205 colon
DU-145 prostate = tested on: DU-145 prostate
EKVX NSCLC = tested on: EKVX NSCLC
HCC-2998 colon = tested on: HCC-2998 colon
HCT-116 colon = tested on: HCT-116 colon
HCT-15 colon = tested on: HCT-15 colon
HL-60(TB) leukemia = tested on: HL-60(TB) leukemia
HOP-62 NSCLC = tested on: HOP-62 NSCLC
HS 578T breast = tested on: HS 578T breast
HT29 colon = tested on: HT29 colon
IGROV1 ovarian = tested on: IGROV1 ovarian
KM12 colon = tested on: KM12 colon
LOX IMVI melanoma = tested on: LOX IMVI melanoma
M14 melanoma = tested on: M14 melanoma
MALME-3M melanoma = tested on: MALME-3M melanoma
MCF7 breast = tested on: MCF7 breast
MDA-MB-231 breast = tested on: MDA-MB-231 breast
MDA-MB-435 = tested on: MDA-MB-435
MDA-N = tested on: MDA-N
MOLT-4 leukemia = tested on: MOLT-4 leukemia
NCI-H226 lung = tested on: NCI-H226 lung
NCI-H23 lung = tested on: NCI-H23 lung
NCI-H460 lung = tested on: NCI-H460 lung
NCI-H522 lung = tested on: NCI-H522 lung
NCI/ADR-RES ovarian = tested on: NCI/ADR-RES ovarian
OVCAR-3 ovarian = tested on: OVCAR-3 ovarian
OVCAR-4 ovarian = tested on: OVCAR-4 ovarian
OVCAR-5 ovarian = tested on: OVCAR-5 ovarian
OVCAR-8 ovarian = tested on: OVCAR-8 ovarian
PC-3 prostate = tested on: PC-3 prostate
RPMI-8226 leukemia = tested on: RPMI-8226 leukemia
RXF 393 renal = tested on: RXF 393 renal
SF-268 CNS = tested on: SF-268 CNS
SF-295 CNS = tested on: SF-295 CNS
SF-539 CNS = tested on: SF-539 CNS
SK-MEL-2 melanoma = tested on: SK-MEL-2 melanoma
SK-MEL-28 melanoma = tested on: SK-MEL-28 melanoma
SK-MEL-5 melanoma = tested on: SK-MEL-5 melanoma
SK-OV-3 ovarian = tested on: SK-OV-3 ovarian
SN12C renal = tested on: SN12C renal
SNB-19 CNS = tested on: SNB-19 CNS
SNB-75 CNS = tested on: SNB-75 CNS
SR leukemia = tested on: SR leukemia
SW-620 colon = tested on: SW-620 colon
T-47D breast = tested on: T-47D breast
TK-10 renal = tested on: TK-10 renal
U251 CNS = tested on: U251 CNS
UACC-257 melanoma = tested on: UACC-257 melanoma
UACC-62 melanoma = tested on: UACC-62 melanoma
UO-31 renal = tested on: UO-31 renal
CCRF-CEM leukemia = tested on: CCRF-CEM leukemia
HOP-92 NSCLC = tested on: HOP-92 NSCLC
K-562 leukemia = tested on: K-562 leukemia

`c1csc(-c2ccc(-c3ccc(-c4cccs4)s3)s2)c1` gave a TGI (786-0 renal) greater than 100 µM, a TGI (A498 renal) greater than 100 µM and a TGI (A549 NSCLC) greater than 100 µM. For the same compound, the TGI (ACHN renal) was greater than 100 µM, the TGI (BT-549 breast) was greater than 100 µM and the TGI (CAKI-1 renal) was greater than 100 µM. For the same compound, the TGI (COLO 205 colon) was greater than 100 µM, the TGI (DU-145 prostate) was greater than 100 µM and the TGI (EKVX NSCLC) was greater than 100 µM. For the same compound, the TGI (HCC-2998 colon) was greater than 100 µM, the TGI (HCT-116 colon) was greater than 100 µM and the TGI (HCT-15 colon) was greater than 100 µM. It also gave a TGI (HL-60(TB) leukemia) greater than 100 µM, a TGI (HOP-62 NSCLC) greater than 100 µM and a TGI (HS 578T breast) greater than 100 µM. For the same compound, the TGI (HT29 colon) was greater than 100 µM, the TGI (IGROV1 ovarian) was greater than 100 µM and the TGI (KM12 colon) was greater than 100 µM. The TGI (LOX IMVI melanoma) was greater than 100 µM, the TGI (M14 melanoma) was greater than 100 µM and the TGI (MALME-3M melanoma) was greater than 100 µM. For the same compound, the TGI (MCF7 breast) was greater than 100 µM, the TGI (MDA-MB-231 breast) was greater than 100 µM and the TGI (MDA-MB-435) was greater than 100 µM. For the same compound, the TGI (MDA-N) was greater than 100 µM, the TGI (MOLT-4 leukemia) was greater than 100 µM and the TGI (NCI-H226 lung) was greater than 100 µM. For the same compound, the TGI (NCI-H23 lung) was greater than 100 µM, the TGI (NCI-H460 lung) was greater than 100 µM and the TGI (NCI-H522 lung) was greater than 100 µM. For the same compound, the TGI (NCI/ADR-RES ovarian) was greater than 100 µM, the TGI (OVCAR-3 ovarian) was greater than 100 µM and the TGI (OVCAR-4 ovarian) was greater than 100 µM. The TGI (OVCAR-5 ovarian) was greater than 100 µM, the TGI (OVCAR-8 ovarian) was greater than 100 µM and the TGI (PC-3 prostate) was greater than 100 µM. It also gave a TGI (RPMI-8226 leukemia) greater than 100 µM, a TGI (RXF 393 renal) greater than 100 µM and a TGI (SF-268 CNS) greater than 100 µM. The TGI (SF-295 CNS) was greater than 100 µM, the TGI (SF-539 CNS) was greater than 100 µM and the TGI (SK-MEL-2 melanoma) was greater than 100 µM. The TGI (SK-MEL-28 melanoma) was greater than 100 µM, the TGI (SK-MEL-5 melanoma) was greater than 100 µM and the TGI (SK-OV-3 ovarian) was greater than 100 µM. It also gave a TGI (SN12C renal) greater than 100 µM, a TGI (SNB-19 CNS) greater than 100 µM and a TGI (SNB-75 CNS) greater than 100 µM. For the same compound, the TGI (SR leukemia) was greater than 100 µM, the TGI (SW-620 colon) was greater than 100 µM and the TGI (T-47D breast) was greater than 100 µM. For the same compound, the TGI (TK-10 renal) was greater than 100 µM, the TGI (U251 CNS) was greater than 100 µM and the TGI (UACC-257 melanoma) was greater than 100 µM. The TGI (UACC-62 melanoma) was greater than 100 µM and the TGI (UO-31 renal) was greater than 100 µM.

`O=[N+]([O-])O.[NH-]C1CCCCC1[NH-].[NH-]C1CCCCC1[NH-].[NH-]C1CCCCC1[NH-].[OH-].[OH-].[OH-].[Pt+4].[Pt+4].[Pt+4]` (configuration not stated) gave a GI50 (786-0 renal) of 0.0408 µM, a TGI (786-0 renal) of 3.19 µM and a GI50 (A498 renal) of 0.278 µM. The TGI (A498 renal) was 35.1 µM, the GI50 (A549 NSCLC) was 0.319 µM and the TGI (A549 NSCLC) was 31.3 µM. It also gave a GI50 (ACHN renal) of 0.164 µM, a GI50 (BT-549 breast) of 3.02 µM and a TGI (BT-549 breast) greater than 62.5 µM. For the same compound, the GI50 (CAKI-1 renal) was 0.222 µM, the TGI (CAKI-1 renal) was 9.33 µM and the GI50 (CCRF-CEM leukemia) was 0.193 µM. For the same compound, the TGI (CCRF-CEM leukemia) was 19.2 µM, the GI50 (COLO 205 colon) was 0.631 µM and the TGI (COLO 205 colon) was 27.9 µM. For the same compound, the GI50 (DU-145 prostate) was 1.35 µM, the TGI (DU-145 prostate) was 50 µM and the GI50 (EKVX NSCLC) was 30.1 µM. It also gave a TGI (EKVX NSCLC) greater than 100 µM, a GI50 (HCC-2998 colon) of 2.09 µM and a TGI (HCC-2998 colon) of 19 µM. It also gave a GI50 (HCT-116 colon) of 0.0709 µM, a GI50 (HCT-15 colon) of 0.223 µM and a TGI (HCT-15 colon) greater than 43.5 µM. The GI50 (HL-60(TB) leukemia) was 1.09 µM, the TGI (HL-60(TB) leukemia) was 4.01 µM and the GI50 (HOP-62 NSCLC) was 2.23 µM. The TGI (HOP-62 NSCLC) was greater than 57.8 µM, the GI50 (HOP-92 NSCLC) was 8.21 µM and the TGI (HOP-92 NSCLC) was greater than 61.2 µM. The GI50 (HS 578T breast) was 12.1 µM, the TGI (HS 578T breast) was greater than 61.9 µM and the GI50 (HT29 colon) was 0.0889 µM. The GI50 (IGROV1 ovarian) was 0.258 µM, the TGI (IGROV1 ovarian) was 19.4 µM and the GI50 (K-562 leukemia) was 0.452 µM. For the same compound, the TGI (K-562 leukemia) was greater than 100 µM, the GI50 (KM12 colon) was 4.05 µM and the TGI (KM12 colon) was greater than 100 µM. For the same compound, the GI50 (LOX IMVI melanoma) was 0.467 µM, the TGI (LOX IMVI melanoma) was greater than 85.7 µM and the GI50 (M14 melanoma) was 0.918 µM. It also gave a TGI (M14 melanoma) of 11.9 µM, a GI50 (MALME-3M melanoma) of 0.199 µM and a TGI (MALME-3M melanoma) of 2.7 µM. The GI50 (MCF7 breast) was 0.157 µM, the TGI (MCF7 breast) was greater than 45.6 µM and the GI50 (MDA-MB-231 breast) was 4.01 µM. The TGI (MDA-MB-231 breast) was greater than 64.4 µM, the GI50 (MDA-MB-435) was 0.367 µM and the TGI (MDA-MB-435) was 6.3 µM. The GI50 (MDA-N) was 0.205 µM, the TGI (MDA-N) was 6.74 µM and the GI50 (MOLT-4 leukemia) was 0.0283 µM. It also gave a TGI (MOLT-4 leukemia) of 2.2 µM, a GI50 (NCI-H226 lung) of 1.37 µM and a TGI (NCI-H226 lung) of 27.5 µM. The GI50 (NCI-H23 lung) was 0.359 µM, the TGI (NCI-H23 lung) was 4.7 µM and the GI50 (NCI-H460 lung) was 0.241 µM. It also gave a TGI (NCI-H460 lung) of 7.07 µM, a GI50 (NCI-H522 lung) of 0.212 µM and a TGI (NCI-H522 lung) of 2.98 µM. For the same compound, the GI50 (NCI/ADR-RES ovarian) was 1.15 µM, the TGI (NCI/ADR-RES ovarian) was greater than 59.3 µM and the GI50 (OVCAR-3 ovarian) was 2.16 µM. The TGI (OVCAR-3 ovarian) was greater than 68.1 µM, the TGI (OVCAR-4 ovarian) was greater than 100 µM and the GI50 (OVCAR-5 ovarian) was 2.03 µM. The TGI (OVCAR-5 ovarian) was 93.8 µM, the GI50 (OVCAR-8 ovarian) was 0.382 µM and the TGI (OVCAR-8 ovarian) was greater than 74.1 µM. The GI50 (PC-3 prostate) was 0.756 µM, the TGI (PC-3 prostate) was 40.9 µM and the GI50 (RPMI-8226 leukemia) was 0.0311 µM. The TGI (RPMI-8226 leukemia) was greater than 24.2 µM, the GI50 (RXF 393 renal) was 1.2 µM and the TGI (RXF 393 renal) was 17.3 µM. For the same compound, the GI50 (SF-268 CNS) was 0.791 µM, the TGI (SF-268 CNS) was greater than 50.2 µM and the GI50 (SF-295 CNS) was 0.971 µM. For the same compound, the TGI (SF-295 CNS) was greater than 66.8 µM, the GI50 (SF-539 CNS) was 1.31 µM and the TGI (SF-539 CNS) was greater than 68.8 µM. For the same compound, the GI50 (SK-MEL-2 melanoma) was 2.05 µM, the TGI (SK-MEL-2 melanoma) was 30.5 µM and the GI50 (SK-MEL-28 melanoma) was 1.43 µM. The TGI (SK-MEL-28 melanoma) was 43.2 µM, the GI50 (SK-MEL-5 melanoma) was 0.0363 µM and the TGI (SK-MEL-5 melanoma) was 1 µM. For the same compound, the GI50 (SK-OV-3 ovarian) was 19.6 µM, the TGI (SK-OV-3 ovarian) was greater than 100 µM and the GI50 (SN12C renal) was 0.126 µM. The TGI (SN12C renal) was 26.7 µM, the GI50 (SNB-19 CNS) was 1.06 µM and the TGI (SNB-19 CNS) was greater than 58.9 µM. For the same compound, the GI50 (SNB-75 CNS) was 1.49 µM, the TGI (SNB-75 CNS) was 32.6 µM and the TGI (SW-620 colon) was greater than 100 µM. The GI50 (T-47D breast) was 1.08 µM, the TGI (T-47D breast) was greater than 83.9 µM and the GI50 (TK-10 renal) was 2.2 µM. The TGI (TK-10 renal) was 28.9 µM, the GI50 (U251 CNS) was 0.513 µM and the TGI (U251 CNS) was 38.1 µM. For the same compound, the GI50 (UACC-257 melanoma) was 1.27 µM, the TGI (UACC-257 melanoma) was 20.4 µM and the GI50 (UACC-62 melanoma) was 0.3 µM. For the same compound, the TGI (UACC-62 melanoma) was 16.5 µM, the GI50 (UO-31 renal) was 0.373 µM and the TGI (UO-31 renal) was 15.5 µM.
